Reference: patent US20090076029A1 (Palatin Technologies, Inc., priority 2007, published 2009)
Read-outs that look alike come from different tables or passages of the source. Square brackets hold non-standard residues; d marks the D form. * marks the point of attachment. dPhe(4-Cl) = N[C@H](Cc1ccc(Cl)cc1)C(=O)O; Heptanoyl = CCCCCCC(=O)*; Bn = c1ccc(C*)cc1

Tests used:
hMC3-R = target: T1, hMC3-R; assay: Competitive inhibition assay using [I125]-NDP-α-MSH, hMC3-R membranes; assay type: binding, human; conditions: read-out: Ki (nM) (NDP-α-MSH) MC3-R
T1 construct: expressed in transfected cells; host or cells: HEK-293
Description: (§1) Competitive inhibition assay using [1125]-NDP-α-MSH. A competitive inhibition binding assay was conducted using membranes prepared from HEK-293 cells transfected to express hMC3-R, hMC4-R or hMC5-R, and from B-16 mouse melanoma cells (containing MC1-R) using 0.2 to 0.4 nM [I^125]-NDP-α-MSH (New England Nuclear) in 50 mM HEPES buffer containing 1 mM MgCl2, 2 mM CaCl2, and 5 mM KCl, at pH 7.2. In certain experiments, HEK-293 cells transfected to express hMC1-R were also employed. The assay tube also contained a chosen concentration of the test compound of this invention, typically a 1 μM concentration, for determining inhibition of the binding of [^1125]-NDP-α-MSH to its receptor. Non-specific binding was measured by inhibition of binding of [I^125]-NDP-α-MSH in the assay with the presence of 1 μM α-MSH.
(§2) The assay mixture was incubated for 90 minutes at room temperature, then filtered and the membranes washed three times with ice cold buffer. The filter was dried and counted in a gamma counter for remaining radioactivity bound to the membranes. 100% specific binding was defined as the difference in radioactivity (cpm) bound to cell membranes in the absence and presence of 1 μM α-MSH. The cpm obtained in presence of test compounds were normalized with respect to 100% specific binding to determine the percent inhibition of [125]-NDP-α-MSH binding. Each assay was conducted in triplicate and the actual mean values are described, with results less than 0% reported as 0%.

hMC5-R = target: T2, hMC5-R; assay: Competitive inhibition assay using [I125]-NDP-α-MSH, hMC5-R membranes; assay type: binding, human; conditions: read-out: Ki (nM) (NDP-α-MSH) MC5-R
T2 construct: expressed in transfected cells; host or cells: HEK-293
Description: as §1, §2

hMC4-R [1] = system: T3, hMC4-R; assay type: binding, human; conditions: for Inhibition at 1 μM (AgRP) MC4-R: 1 μM compound
T3 construct: expressed in transfected cells; host or cells: HEK-293
Description: Competitive binding assay using [I^125]-AgRP (83-132). Competitive binding studies using [I^125]-AgRP (83-132) were carried out on membranes isolated from cells expressing hMC4-R. The assay was performed in 96 well GF/B Millipore multiscreen filtration plates (MAFB NOB10) pre-coated with 0.5% bovine serum albumin (Fraction V). The assay mixture contained 25 mM HEPES buffer (pH 7.5) with 100 mM NaCl, 2 mM CaCl2, 2 mM MgCl2, 0.3 mM 1,10-phenanthroline, 0.5% bovine serum albumin, cell membranes, radioligand [I^125]-AgRP (83-132) (NEN), and increasing concentrations of compounds in a total volume of 200 μL. Binding was measured at radioligand concentrations of 0.2 nM. After incubating for 1 hour at 37° C., the reaction mixture was filtered and washed with an assay buffer containing 500 mM NaCl. The dried discs were punched out from the plate and counted on a gamma counter. Care was taken to limit the specific binding of the ligand to an amount not exceeding 10% of the counts added to the reaction mixture. Data were analyzed using the Prism Graph-Pad curve fitting software.

hMC4-R [2] = target: T3, hMC4-R; assay: Competitive inhibition assay using [I125]-NDP-α-MSH, hMC4-R membranes; assay type: binding, human; conditions: for attenuation of binding of α-MSH and AgRP to MC4-R: both ligands (NDP-α-MSH and AgRP), summary
Description: as §1, §2

hMC4-R [3] = system: T3, hMC4-R; assay: cAMP functional assay in HEK-293 cells expressing MC4-R (agonist, neutral antagonist/Schild); assay type: cell-based, human; conditions: for intrinsic activity at MC4-R: NDP-α-MSH maximal stimulation = 1.0; for functional status at MC4-R: mostly at 1 μM
Description: General method for EC50 determination in functional activity assay. Functional evaluation of compounds at melanocortin receptors was performed by measuring the accumulation of intracellular cAMP in HEK-293 cells expressing hMC3-R, hMC4-R or hMC5-R, and in B-16 mouse melanoma cells expressing MC1-R. Cells suspended in Earle's Balanced Salt Solution containing 10 mM HEPES (pH 7.5), 5 mM MgCl2, 1 mM glutamine, 0.1% albumin and 0.6 mM 3-isobutyl-1-methyl-xanthine, a phosphodiesterase inhibitor, were plated in 96 well plates at a density of 0.5×10^5 cells per well. Cells were incubated with the test compounds in the presence or absence of α-MSH for 1 hour at 37° C. cAMP levels in the cell lysates were measured using an EIA kit (Amersham). Data analysis and EC50 values were determined using nonlinear regression analysis with Prism Graph-Pad software.
Functional status. The agonist/antagonist status with respect to MC1-R, MC-3R, MC4-R and MC5-R of certain compounds of the invention was determined.
Assay for agonist. Evaluation of the molecules to elicit a functional response in HEK-293 cells expressing MC4-R was accomplished by measuring the accumulation of intracellular cAMP following treatment. Confluent HEK-293 cells expressing MC4-R were detached by enzyme free cell suspension buffer. Cells were suspended in Earle's Balanced Salt Solution containing 10 mM HEPES (pH 7.5), 1 mM MgCl2, 1 mM glutamine, 0.5% albumin and 0.3 mM 3-isobutyl-1-methyl-xanthine (IBMX), a phosphodiesterase inhibitor. The cells were plated in 96 well plates at a density of 0.5×10^5 cells per well and pre-incubated for 30 minutes. The cells were then challenged with the test compounds dissolved in DMSO at a concentration range of 0.05-5000 nM in a total assay volume of 200 μL for 1 hour at 37° C. The concentration of DMSO was always held at 1% in the assay mixture. NDP-α-MSH was used as the reference agonist. At the end of the incubation period the cells were disrupted by the addition of 50 μL of lysis buffer from a cAMP EIA kit (Amersham). Complete rupture of the cells was obtained by pipetting the cells multiple times. cAMP levels in the cell lysates were measured after appropriate dilution using the EIA kit (Amersham) method. Data analysis and EC50 values were determined by using nonlinear regression analysis with Prism Graph-Pad software. […] FIG. 1 illustrates typical results, showing the stimulation of cAMP using the compound of Example 11 in HEK-293/MC4-R cells with comparison to NDP-α-MSH.
Assay for Neutral Antagonist. Compounds with a high affinity for binding to MC4-R membranes but with less potency in terms of cAMP accumulation (EC50>1000 nM) and low response ratio (<0.1) were analyzed for their ability to antagonize the stimulatory effect of the agonist NDP-α-MSH. These studies were carried out in HEK-293 cells expressing MC4-R. Cells were incubated with the compounds in the presence of the agonist NDP-α-MSH and the extent of antagonism was measured by the decrease in intracellular cAMP concentrations. Screening the compounds for antagonist activity was performed at a single concentration of NDP-α-MSH (1.0 nM) over a compound concentration range of 0.5-5000 nM.
Experimental details were similar to the analysis for agonistic activity described above. Briefly, cells were pre-incubated for 30 minutes with the test compounds at concentrations between 0.5 nM and 5000 nM. The cells were then stimulated with NDP-α-MSH at a concentration of 1 nM for 1 hour. For Schild's analysis, the interactions were studied using at least 3 concentrations of the compounds, separated by a log unit, over a full range of the agonist (0.005-5000 nM). cAMP levels were measured in the cell lysates after appropriate dilution. Nonlinear regression analysis with Prism Graph-Pad software was used for Schild analysis and to obtain EC50 values. pA2 values were derived from the Schild plot of the data.

MC1-R = target: T4, MC1-R; assay: Competitive inhibition assay using [I125]-NDP-α-MSH, MC1-R membranes; assay type: binding, mouse; conditions: for Inhibition at 1 μM (NDP-α-MSH) MC1-R: 1 μM compound
T4 construct: other: 1 μM compound
Description: as §1, §2

[4] = MC4-R membranes, Table 1, read-out: Ki (nM) I125-AgRP
[5] = MC4-R membranes, Table 1, read-out: Ki (nM) I125-NPD-α-MSH
[6] = read-out: Ki (nM) (NDP-α-MSH) MC4-R
[7] = MC4-R, Table 1 in μM, read-out: EC50
[8] = cAMP assay, read-out: EC50 (nM) at MC4-R

| Molecule | Ki (hMC3-R) [nM] | Ki (hMC5-R) [nM] | Inhibition at 1 μM (AgRP) MC4-R (hMC4-R [1]) [%] | Ki (hMC4-R [1]; [4]) [nM] | Ki (hMC4-R [1]; read-out: Ki (nM) (AgRP) MC4-R) | Ki (hMC4-R [2]; [5]) [nM] | attenuation of binding of α-MSH and AgRP to MC4-R (hMC4-R [2]) | Ki (hMC4-R [2]; [6]) [nM] | functional status (pAg, Ag, Antag, Inactive) (hMC4-R [3]; MC4-R, Table 1) | EC50 (hMC4-R [3]; [7]) [µM] | intrinsic activity at MC4-R (hMC4-R [3]) | functional status at MC4-R (hMC4-R [3]; cAMP assay) | EC50 (hMC4-R [3]; [8]) [µM] | EC50 (hMC4-R [3]; MC4-R, Table 1, read-out: EC50) [µM] | Ki (MC1-R) [nM] | Inhibition at 1 μM (NDP-α-MSH) MC1-R (MC1-R) [%] | pA2 (M) (hMC4-R [3]; MC4-R antagonists, Table 1) | pA2 value at MC4-R (hMC4-R [3]; Schild plot vs NDP-α-MSH) |
| --- | --- | --- | --- | --- | --- | --- | --- | --- | --- | --- | --- | --- | --- | --- | --- | --- | --- | --- |
| 2-naphthylacetyl-1-amino-1-cyclohexane-carbonyl-D-Phe(4-Cl)-Arg-Trp-NH2 [Example 25] | 453 | 300 | 91 | 50 | 50 | 40 | attenuate the binding of both α-MSH and AgRP to MC4-R | 40 | pAg (“pAg” means partial agonist) | > 1 | 0.2 | partial agonist (intrinsic activity between 0.1 (10%) and 0.7 (70%) is classified as a partial agonist) | > 1 |  |  |  |  |  |
| 7′-amino-heptanoyl-Ser(Bzl)-D-Phe(4-Cl)-Arg-S-(−)-1-(1-naphthyl)ethylamide [Example 17] | 125 | 313 | 100 | 0.6 | 0.6 | 7 | attenuate the binding of both α-MSH and AgRP to MC4-R | 7 | pAg (“pAg” means partial agonist) |  | 0.3 |  | 0.017 | 0.017 |  |  |  |  |
| N=C(N)NCCC[C@H]1CN(CCc2ccc3ccccc3c2)CCN1C(=O)[C@H](N)Cc1ccc(Cl)cc1Cl [Example 18, N-{3-[(S)-1%-[(R)-2-Amino-3-(2,4-dichloro-phenyl)-propionyl]-4-(2-naphthalen-2-ylethyl)-piperazin-2-yl]-propyl}-guanidine] | 97 | 259 | 100 | 1 | 1 | 3 | attenuate the binding of both α-MSH and AgRP to MC4-R | 3 | pAg (“pAg” means partial agonist) |  | 0.4 |  | 0.022 | 0.022 | 1200 | 6 |  |  |
| N=C(N)NCCC[C@H]1C(=O)N2C(CC[C@@H]2COc2ccc3ccccc3c2)N1C(=O)[C@@H](Cc1ccc(Cl)cc1Cl)NC(=O)[C@@H]1Cc2ccccc2CN1 (stereo partly drawn) [Example 23, (S)-1,2,3,4-Tetrahydro-isoquinoline-3-carboxylic acid {(R)-1-(2,4-dichloro-benzyl)-2-[(2S,5R)-2-(3-guanidino-propyl)-5-(naphthalen-2-yloxymethyl)-3-oxo-hexahydro-pyrrolo[1,2-a]imidazol-1-yl]-2-oxo-ethyl}-amide] | 42 | 26 | 100 | 1.2 | 1.2 | 1 |  | 1 | Antag (“Antag” means antagonist) |  |  | antagonist |  |  |  |  | 8.086 | 8.0 |
| Heptanoyl-T(Bn)[dPhe(4-Cl)]RW-NH2 [Example 24] | 374 | 292 | 90 | 69 | 69 | 21 | attenuate the binding of both α-MSH and AgRP to MC4-R | 21 | pAg (“pAg” means partial agonist) | > 1 | 0.4 |  | > 1 |  |  |  |  |  |
| NH2—(CH2)6—C(═O)-Ser(Bzl)-D-Phe(4-Cl)-Arg-Trp-Asp-Phe-NH2 [Example 15] | 76 | 405 | 95 | 0.6 | 0.6 | 5 | attenuate the binding of both α-MSH and AgRP to MC4-R | 5 | pAg (“pAg” means partial agonist) |  | 0.5 |  | 0.238 | 0.283 | 242 | 38 |  |  |
